Test results from ChEMBL document CHEMBL1121497, “Studies on cardiovascular agents. 6. Synthesis and coronary vasodilating and antihypertensive activities of 1,2,4-triazolo[1,5-a]pyrimidines fused to heterocyclic systems” (1980).

Key:
Cavia porcellus = organism: Cavia porcellus; assay: Integrated vasodilating potency (IVP) (the product of compound-induced maximum percent decrease in the perfusion pressure and the duration of the effect in minutes at 100 ug (ia)); format: functional
Rattus norvegicus = assay: Hypotensive index (HI) measured as the area under the time-hypotensive response curve for 6-h period at 30 mg/kg, po; format: functional

SMILES	IVP (Cavia porcellus)	HI (Rattus norvegicus)
Cc1nc2ncnn2c2c1ccn2CC(C)C	38	15
Cc1nc2ncnn2c2c1CCN2C(C)c1ccccc1 (stereo not drawn)	137	5
Cc1cn(C(C)(C)C)c2c1c(C)nc1ncnn12	330	20
Cc1nc2ncnn2c2c1CCS2	0	10
Cc1nc2ncnn2c2c1CCN2C(C)COc1ccccc1 (stereo not drawn)	63	65
Cc1nc2ncnn2c2c1CCN2c1ccccc1	72	15
Cc1nc2ncnn2c2c1CCN2CCCN1CCCC1	0	75
Cc1nc2ncnn2c2c1CCN2Cc1ccccc1Cl	86	30
Cc1nc2ncnn2c2c1CCN2CCC(=O)c1ccccc1	32	17
CCCCCCN1CCc2c(C)nc3ncnn3c21	14	10
Cc1nc2ncnn2c2c1ccn2Cc1ccccc1Cl	22	12
Cc1nc2ncnn2c2c1CC(C)N2Cc1ccccc1F (stereo not drawn)	64	5
Cc1nc2ncnn2c2c1CCN2CC(C)C	107	60
Cc1nc2ncnn2c2c1NCCN2C	0	5
Cc1nc2ncnn2c2c1CCN2CCN1CCCC1	2	0
Cc1nc2ncnn2c2c1CC(C)N2Cc1ccccc1Cl (stereo not drawn)	80	8
COc1ccc(Cn2ccc3c(C)nc4ncnn4c32)cc1	55	0
Cc1nc2ncnn2c2c1CCCO2	0	
Cc1nc2ncnn2c2c1CCN2CCCN(CCO)CCO	0	45
CCC(C)N1CCc2c(C)nc3ncnn3c21 (stereo not drawn)	5	100
CCCCCCCCCCCCN1CCc2c(C)nc3ncnn3c21		10

SMILES	IVP (Cavia porcellus)	HI (Rattus norvegicus)
Cc1nc2ncnn2c2c1CCN2Cc1ccccc1	46	170
Cc1nc2ncnn2c2c1CC(C)N2C(C)(C)C (stereo not drawn)	47	
Cc1nc2ncnn2c2c1CCN2CCN1CCN(C)CC1	20	10
COc1cc(C(=O)OCCCN2CCc3c(C)nc4ncnn4c32)cc(OC)c1OC	26	10
Cc1ccc(CN2CCc3c(C)nc4ncnn4c32)cc1	119	15
Cc1nc2ncnn2c2c1CCN2CCCN(C)C	0	10
CCN(CC)CCN1CCc2c(C)nc3ncnn3c21	1	0
COc1cc(CN2CCc3c(C)nc4ncnn4c32)cc(OC)c1OC	109	15
Cc1nc2ncnn2c2c1CCN2CCOC(=O)c1cccnc1	7	30
C=CCN1CCc2c(C)nc3ncnn3c21	56	70
Cc1nc2ncnn2c2c1CCN2C(C)C(O)c1ccccc1 (stereo not drawn)	8	0
CNC1(C)C2CCC(C2)C1(C)C (stereo not drawn) [MECAMYLAMINE]		110
CCC1Cc2c(C)nc3ncnn3c2N1C(C)C (stereo not drawn)	0	20
COc1cc(-c2nc3nc(C)c4c(n3n2)N(C(C)(C)C)CC4)cc(OC)c1OC	222	50
Cc1nc2ncnn2c2c1CCN2C	50	10
Cc1nc2ncnn2c2c1CCN2CCS	285	10
Cc1nc2nc(-c3ccccc3)nn2c2c1CCN2CCCN1CCCC1	105	44
Cc1nc2ncnn2c2c1CCN2	6	55
Cc1nc2ncnn2c2c1CCN2CCCN1CCOCC1	3	40
CCN1CCc2c(C)nc3ncnn3c21	12	10
Cc1nc2ncnn2c2c1CCN2CCN1CCCCC1	2	10

SMILES	IVP (Cavia porcellus)	HI (Rattus norvegicus)
Cc1nc2ncnn2c2c1C(C)CN2C(C)(C)C (stereo not drawn)	333	20
CCCCN1c2c(c(C)nc3ncnn23)CC1CC (stereo not drawn)	120	10
Cc1nc2ncnn2c2c1CCN2CCCO	12	105
Cc1nc2nc(C)c3c(n2n1)N(Cc1ccccc1Cl)CC3	15	18
CC(C)(C)N1CCc2c(C3CC3)nc3ncnn3c21	125	20
Clc1ccccc1CN1CCc2c(C3CC3)nc3ncnn3c21	5	
Cc1nc2ncnn2c2c1CCN2c1ccc(S(N)(=O)=O)cc1	14	0
COc1ccc(CN2CCc3c(C)nc4ncnn4c32)cc1OC	174	55
c1ccc(CCN2CCc3c(C4CC4)nc4ncnn4c32)cc1	180	12
Cc1nc2ncnn2c2c1CCN2C(C)CC(C)C (stereo not drawn)	86	5
Cc1nc2ncnn2c2c1CCN2C(C)(C)CO	38	75
Cc1nc2ncnn2c2c1CCN2C(C)(C)CC(C)(C)C	32	
Cc1nc2ncnn2c2c1CC[N+]2(C)C(C)(C)C.[I-] (stereo not drawn)	9	0
CCCCN1c2c(c(C)nc3ncnn23)CC1C (stereo not drawn)	50	45
Cc1nc2ncnn2c2c1CCN2Cc1ccccc1F	351	5
CCCCCCCCCCN1CCc2c(C)nc3ncnn3c21		7
COc1ccc(-c2nc3nc(C)c4c(n3n2)N(C)CC4)cc1	0	0
Cc1nc2ncnn2c2c1CC(C)N2C(C)C (stereo not drawn)	10	0
Cc1nc2nc(C)c3c(n2n1)N(CCCN1CCCC1)CC3	0	10
Cc1nc2ncnn2c2c1CCN2CCO	12	0
Cc1nc2ncnn2c2c1CCN2CC(C)(C)C	760	40

SMILES	IVP (Cavia porcellus)	HI (Rattus norvegicus)
Cc1nc2ncnn2c2c1CCN2CCOCCO	22	10
Cc1nc2nc(C)c3c(n2n1)N(C(C)(C)C)CC3	18	35
CCCCCN1CCc2c(C)nc3ncnn3c21	15	6
CCCCN1CCc2c(C)nc3ncnn3c21	30	145
Cc1nc2ncnn2c2c1CCN2CCCOC(=O)c1cccnc1	24	30
CC(C)N1CCc2c(C3CC3)nc3ncnn3c21	45	5
Cc1nc2ncnn2c2c1CCN2CCCN1CCCCC1	5	45
N=C(N)NCCN1CCCCCCC1.N=C(N)NCCN1CCCCCCC1.O=S(=O)(O)O [GUANETHIDINE SULFATE]		195
Cc1nc2ncnn2c2c1CCN2C(C)C	24	0
CCCN1CCN(CCCN2CCc3c(C)nc4ncnn4c32)CC1	3	0
COc1ccc(CCN2CCc3c(C)nc4ncnn4c32)cc1OC	11	15
COc1ccc(CN2c3c(c(C)nc4ncnn34)CC2C)cc1 (stereo not drawn)	82	11
Cc1nc2ncnn2c2c1CCN2CCN1CCOCC1	16	5
Cc1nc2ncnn2c2c1CCN2C1CCCCCC1	440	45
COc1cc(C(=O)OCCN2CCc3c(C)nc4ncnn4c32)cc(OC)c1OC	21	0
COc1ccc(CN2CCc3c(C)nc4ncnn4c32)cc1	55	13
CC(C)(C)CN1CCc2c(C3CC3)nc3ncnn3c21	50	20
Cc1nc2ncnn2c2c1CCN2CCc1ccccc1	100	5
CCCCN(CCCC)CCCN1CCc2c(C)nc3ncnn3c21	0	40
COc1ccc(-c2nc3nc(C)c4c(n3n2)N(CCCN2CCCC2)CC4)cc1	0	0
